From US8455514B2 (Aerie Pharmaceuticals, Inc., priority 2008, dated 2013)
Structures can show the parent of a compound that is named as a salt.

What was measured:
[1] = system: eyes of a Dutch-belted rabbit; experiment: Intraocular pressure after a topical drop to the eyes of Dutch-belted rabbits; format: in vivo; details: composition of Example 105 (0.30 wt %), 40 microliter drop topically once daily; for decrease of intraocular pressure: in some tests
Procedure: (§1) Topical pharmaceutical compositions for lowering intraocular pressure are prepared by conventional methods and formulated as follows: […]
A pharmaceutical composition was prepared according to Example 105, where the 6-aminoisoquinoline derivative was (R)-2-(dimethylamino)-N-(1-hydroxyisoquinolin-6-yl)-2-(thiophen-3-yl)acetamide hydrochloride (E79). […] In some tests, the intraocular pressure was decreased by greater than 5 mm of mercury.

[2] = system: eyes; experiment: Topical pharmaceutical composition administered to the eyes as drops (present-tense composition examples); format: in vivo, patient; details: composition of Example 90 (0.50 wt %)
Procedure: as §1
A compound according to this invention is used as the 6- or 7-aminoisoquinoline derivative. When the composition is topically administered to the eyes once or more daily as 40 microliter drops, the above composition decreases intraocular pressure in a patient suffering from glaucoma.

[3] = system: eyes; experiment: as above; format: in vivo, patient; details: composition of Example 90 (0.50 wt %); for neuroprotective effect: topical drop 4 times per day; for effect on hyperemia, redness and ocular irritation: drop as needed
[4] = topical drop twice a day or as needed

CN(C)[C@@H](C(=O)Nc1ccc2cnccc2c1)c1ccsc1.Cl [Example E80, (R)-2-(dimethylamino)-N-(isoquinolin-6-yl)-2-(thiophen-3-yl)acetamide hydrochloride]
effect on intraocular pressure [1]: substantially decreased intraocular pressure
decrease of intraocular pressure [1]: greater than 5 mm of mercury

(R)—N-(isoquinolin-6-yl-amino)-2-(ethylamino)-2-p-methylphenyl acetamide dihydrochloride [Example E18]
effect on intraocular pressure ([2]; topical drop twice per day): substantially decreases intraocular pressure

CN[C@@H](CC(C)C)C(=O)Nc1ccc2ccncc2c1 [Example E88, (S)—N-(isoquinolin-7-yl)-4-methyl-2-(methylamino)pentanamide dihydrochloride]
effect on intraocular pressure ([2]; topical drop 4 times per day): substantially decreases intraocular pressure

CC(C)C[C@@H](C(=O)Nc1ccc2ccncc2c1)N(C)C(=O)OC(C)(C)C [Example E87, (S)-tert-butyl 1-(isoquinolin-7-ylamino)-4-methyl-1-oxopentan-2-yl(methyl)carbamate]
effect on intraocular pressure ([2]; topical drop 4 times per day): substantially decreases intraocular pressure

N[C@@H](C(=O)Nc1ccc2cnccc2c1)c1ccccc1 [Example E2, (R)-2-amino-N-(isoquinolin-6-yl)-2-phenylacetamide dihydrochloride]
effect on intraocular pressure ([2]; topical drop 4 times per day): substantially decreases intraocular pressure
neuroprotective effect [3]: serves as a neuroprotective agent

O=S(=O)(Nc1ccc2cnccc2c1)C(NC1CCCCC1)c1ccccc1 (stereo not shown) [Example E50]
effect on allergic symptoms ([3]; topical drop twice per day): substantially decreases allergic symptoms
effect on dry eye syndrome ([3]; topical drop twice per day): relieves dry eye syndrome

CCCN[C@H](C(=O)Nc1ccc2cnccc2c1)C1CCCCC1 [Example E25, (S)-2-cyclohexyl-N-(isoquinolin-6-yl)-2-(propylamino)acetamide]
effect on intraocular pressure [2, 4]: substantially decreases intraocular pressure

O=C(Nc1ccc2cnccc2c1)[C@@H](c1ccccc1)N1CCCNC1 [Example E41, (R)—N-(isoquinolin-6-yl)-2-phenyl-2-(tetrahydropyrimidin-1(2H)-yl)acetamide]
effect on intraocular pressure [2, 4]: substantially decreases intraocular pressure

CN(C)[C@@H](C(=O)Nc1ccc2cnccc2c1)c1ccccc1 [Example E3, (R)-2-(dimethylamino)-N-(isoquinolin-6-yl)-2-phenylacetamide dihydrochloride]
effect on intraocular pressure ([2]; topical drop twice per day): substantially decreases intraocular pressure
effect on hyperemia, redness and ocular irritation [3]: substantially decreases hyperemia, redness and ocular irritation

(R)—N-(isoquinolin-6-yl amino)-2-(methylamino)-2-o-fluorophenyl acetamide dihydrochloride [Example E17]
effect on intraocular pressure ([2]; topical drop 4 times per day): substantially decreases intraocular pressure
neuroprotective effect [3]: serves as a neuroprotective agent

O=C(Nc1ccc2cnccc2c1)[C@@H](c1ccccc1)N1CCNCC1 [Example E40, (R)—N-(isoquinolin-6-yl)-2-phenyl-2-(piperazin-1-yl)acetamide]
effect on hyperemia, redness and ocular irritation [3]: substantially decreases hyperemia, redness and ocular irritation

Cl.Cl.N[C@@H](C(=O)Nc1ccc2cnccc2c1)C1CCCCC1 [Example E9, (R)—N-(isoquinolin-6-ylamino)-2-amino-2-cyclohexyl acetamide dihydrochloride]
effect on allergic symptoms ([3]; topical drop as needed): substantially decreases allergic symptoms

CN(C)[C@@H](C(=O)Nc1ccc2c(O)nccc2c1)c1ccsc1 [Example E79, (R)-2-(dimethylamino)-N-(1-hydroxyisoquinolin-6-yl)-2-(thiophen-3-yl)acetamide hydrochloride]
effect on intraocular pressure [1]: substantially decreased intraocular pressure
decrease of intraocular pressure [1]: greater than 5 mm of mercury
